From patent US20240041042A1, “1-(PYRIDYL)-5-AZINYLPYRAZOLE DERIVATIVES, AND THEIR USE FOR CONTROL OF UNDESIRED PLANT GROWTH” (Bayer Aktiengesellschaft, priority 2020, published 2024)
Like-named read-outs stand apart in the source and are kept apart here.

Key:
Type in all cases: in vivo
Avena fatua (AVEFA) [1] = assay: Post-emergence herbicidal action against AVEFA; details: visual rating about 3 weeks after treatment
Procedure, shortened: (§1)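 Post-emergence greenhouse spray, one-leaf stage, 600 l/ha water plus 0.5% additive; WP or EC formulations; application rates 320 g/ha or lower. Visual % damage vs untreated controls at ~3 weeks.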

[2] = tested on: Matricaria inodora (MATIN); assay: Pre-emergence herbicidal action against MATIN
Procedure, shortened: (§2)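 Pre-emergence soil-surface spray of compound, formulated as wettable powder or emulsion concentrate, in aqueous suspension or emulsion with 0.5% additive (600 l/ha; rate 320 g/ha or less). Activity rated visually after roughly 3 weeks in the greenhouse as a percentage of untreated controls, 0% meaning no difference.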

[3] = tested on: Amaranthus retroflexus (AMARE); assay: Pre-emergence herbicidal action against AMARE; details: visual scoring after about 3 weeks vs untreated controls
Procedure, shortened: as §2

Viola tricolor (VIOTR) [4] = assay: Post-emergence herbicidal action against VIOTR
Procedure, shortened: as §1

Viola tricolor (VIOTR) [5] = assay: Pre-emergence herbicidal action against VIOTR
Procedure, shortened: as §2

[6] = tested on: Verconica persica (VERPE); assay: Post-emergence herbicidal action against VERPE
Procedure, shortened: as §1

Avena fatua (AVEFA) [7] = assay: Pre-emergence herbicidal action against AVEFA; details: 320 g/ha, visual scoring after about 3 weeks vs untreated controls
Procedure, shortened: as §2

Zea mays (ZEAMX) = details: for Post-emergence action against ZEAMX in %: crop plant compatibility, 80 g/ha, effect vs untreated controls
Procedure, shortened: (§3)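 One-leaf-stage crops (2–3 wk post-sowing, sandy loam, greenhouse) sprayed on green parts; 0.5% additive, 600 l/ha water. Rated by eye ~3 wk later, % vs untreated; suffixes a/b/c mark different dosages.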

Oryza sativa (ORYSA) [8] = details: crop plant compatibility
Procedure, shortened: as §3

[9] = tested on: Pharbitis purpurea (PHBPU); assay: Post-emergence herbicidal action against PHBPU
Procedure, shortened: as §1

[10] = tested on: Alopecurus myosuroides (ALOMY); assay: Pre-emergence herbicidal action against ALOMY; details: scored visually after about 3 weeks, 100% = plants have died
Procedure, shortened: as §2

Setaria viridis (SETVI) [11] = assay: Pre-emergence herbicidal action against SETVI
Procedure, shortened: as §2

[12] = tested on: Echinochloa crus-galli (ECHCG); assay: Post-emergence herbicidal action against ECHCG
Procedure, shortened: as §1

[13] = tested on: Alopecurus myosuroides (ALOMY); assay: Post-emergence herbicidal action against ALOMY; details: visual rating about 3 weeks after treatment vs untreated controls (100% = plants have died, 0% = like control plants)
Procedure, shortened: as §1

[14] = tested on: Polygonum convolvulus (POLCO); assay: Post-emergence herbicidal action against POLCO
Procedure, shortened: as §1

[15] = tested on: Verconica persica (VERPE); assay: Pre-emergence herbicidal action against VERPE
Procedure, shortened: as §2

[16] = tested on: Pharbitis purpurea (PHBPU); assay: Pre-emergence herbicidal action against PHBPU
Procedure, shortened: as §2

Lolium rigidum (LOLRI) [17] = assay: Pre-emergence herbicidal action against LOLRI
Procedure, shortened: as §2

[18] = tested on: Echinochloa crus-galli (ECHCG); assay: Pre-emergence herbicidal action against ECHCG
Procedure, shortened: as §2

[19] = tested on: Abutilon theophrasti (ABUTH); assay: Post-emergence herbicidal action against ABUTH; details: visual rating about 3 weeks after treatment vs untreated controls (100% = plants have died, 0% = like control plants)
Procedure, shortened: as §1

[20] = tested on: Polygonum convolvulus (POLCO); assay: Pre-emergence herbicidal action against POLCO
Procedure, shortened: as §2

Oryza sativa (ORYSA) [21] = details: pre-emergence, 80 g/ha, crop plant compatibility, in comparison to untreated controls
Procedure, shortened: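 Scoring: visual, % of untreated control, about 3 weeks after a pre-emergence application to the soil surface. Application used WP or EC formulations diluted in water with 0.5% additive at 600 l/ha; dosage levels are marked by suffixes a, b and c.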

[22] = tested on: Amaranthus retroflexus (AMARE); assay: Post-emergence herbicidal action against AMARE
Procedure, shortened: as §1

Setaria viridis (SETVI) [23] = assay: Post-emergence herbicidal action against SETVI
Procedure, shortened: as §1

Lolium rigidum (LOLRI) [24] = assay: Post-emergence herbicidal action against LOLRI
Procedure, shortened: as §1

[25] = tested on: Matricaria inodora (MATIN); assay: Post-emergence herbicidal action against MATIN; details: dosage 80 g/ha
Procedure, shortened: as §1

[26] = 80 g/ha, effect in comparison to untreated controls
[27] = 320 g/ha, visual rating about 3 weeks after treatment

| Structure (SMILES) | Pre-emergence action against MATIN in % ([2]; dosage 320 g/ha) [%] | Pre-emergence action against AMARE in % ([3]; 80 g/ha) [%] | Pre-emergence action against AMARE in % ([3]; 320 g/ha) [%] | Pre-emergence action against VIOTR in % (Viola tricolor (VIOTR) [5]; 320 g/ha, Viola tricolor) [%] | Pre-emergence action against VIOTR in % (Viola tricolor (VIOTR) [5]; dosage 80 g/ha) [%] | Post-emergence action against VERPE in % ([6]; dosage 80 g/ha) [%] | Pre-emergence action against AVEFA in % (Avena fatua (AVEFA) [7]) [%] | Post-emergence action against ORYSA in % (Oryza sativa (ORYSA) [8]; [26]) [%] | Pre-emergence action against ALOMY ([10]; 80 g/ha) [%] | Pre-emergence action against ALOMY ([10]; 320 g/ha) [%] | Pre-emergence action against SETVI in % (Setaria viridis (SETVI) [11]; dosage 320 g/ha) [%] | Post-emergence action against ECHCG in % ([12]; dosage 80 g/ha) [%] | Post-emergence action against ALOMY in % ([13]; 80 g/ha) [%] | Pre-emergence action against VERPE in % ([15]; dosage 320 g/ha) [%] | Pre-emergence action against PHBPU in % ([16]; dosage 320 g/ha) [%] | Pre-emergence action against LOLRI in % (Lolium rigidum (LOLRI) [17]; dosage 320 g/ha) [%] | Pre-emergence action against ECHCG in % ([18]; dosage 80 g/ha) [%] | Pre-emergence action against ECHCG in % ([18]; dosage 320 g/ha) [%] | Pre-emergence action against POLCO in % ([20]; dosage 320 g/ha) [%] | Pre-emergence action against ORYSA in % (Oryza sativa (ORYSA) [21]) [%] | also measured |
| --- | --- | --- | --- | --- | --- | --- | --- | --- | --- | --- | --- | --- | --- | --- | --- | --- | --- | --- | --- | --- | --- |
| O=C(O)COc1nn(-c2nc(F)ccc2F)c(-c2ccc(F)nc2)c1Cl [Example I-337] | 90 | 90 | 90 | 100 | 80 | 80 | 90 | 20 | 80 | 90 | 100 | 80 | 90 | 90 | 80 | 100 | 80 | 90 | 90 | 20 | Post-emergence action against AVEFA in % (Avena fatua (AVEFA) [1]; 320 g/ha): 80%; Post-emergence action against VIOTR in % (Viola tricolor (VIOTR) [4]; 80 g/ha): 80%; Post-emergence action against VIOTR in % (Viola tricolor (VIOTR) [4]; 320 g/ha): 80%; Post-emergence action against VERPE in % ([6]; 320 g/ha, VERPE): 80%; Post-emergence action against ZEAMX in % (Zea mays (ZEAMX)): 10%; Post-emergence action against PHBPU in % ([9]; dosage 80 g/ha): 90%; Post-emergence action against PHBPU in % ([9]; dosage 320 g/ha): 90%; Pre-emergence action against SETVI in % (Setaria viridis (SETVI) [11]; dosage 80 g/ha): 90%; Post-emergence action against ECHCG in % ([12]; dosage 320 g/ha): 90%; Post-emergence action against ALOMY in % ([13]; 320 g/ha): 90%; Post-emergence action against POLCO in % ([14]; dosage 80 g/ha): 80%; Post-emergence action against POLCO in % ([14]; dosage 320 g/ha): 80%; Pre-emergence action against VERPE in % ([15]; dosage 80 g/ha): 90%; Pre-emergence action against PHBPU in % ([16]; dosage 80 g/ha): 80%; Post-emergence action against ABUTH in % ([19]; 80 g/ha): 80%; Post-emergence action against ABUTH in % ([19]; 320 g/ha): 80%; Pre-emergence action against POLCO in % ([20]; dosage 80 g/ha): 80%; Post-emergence action against AMARE in % [22, 27]: 80%; Post-emergence action against SETVI in % (Setaria viridis (SETVI) [23]; dosage 320 g/ha): 80% |
| CCOC(=O)[C@@H](C)Oc1nn(-c2nc(F)ccc2F)c(-c2ccc(F)nc2)c1Br [Example I-336] | 90 | 90 | 100 | 100 | 90 | 80 | 90 | 20 | 80 | 100 | 100 | 80 | 90 | 90 | 80 | 100 | 80 | 100 | 90 | 20 | Post-emergence action against AVEFA in % (Avena fatua (AVEFA) [1]; 80 g/ha): 80%; Post-emergence action against AVEFA in % (Avena fatua (AVEFA) [1]; 320 g/ha): 90%; Pre-emergence action against MATIN in % ([2]; dosage 80 g/ha): 80%; Post-emergence action against VIOTR in % (Viola tricolor (VIOTR) [4]; 320 g/ha): 80%; Post-emergence action against VERPE in % ([6]; 320 g/ha, VERPE): 90%; Post-emergence action against PHBPU in % ([9]; dosage 80 g/ha): 90%; Post-emergence action against PHBPU in % ([9]; dosage 320 g/ha): 100%; Post-emergence action against ECHCG in % ([12]; dosage 320 g/ha): 80%; Post-emergence action against ALOMY in % ([13]; 320 g/ha): 90%; Post-emergence action against POLCO in % ([14]; dosage 320 g/ha): 80%; Pre-emergence action against VERPE in % ([15]; dosage 80 g/ha): 80%; Pre-emergence action against LOLRI in % (Lolium rigidum (LOLRI) [17]; dosage 80 g/ha): 80%; Post-emergence action against LOLRI in % (Lolium rigidum (LOLRI) [24]; dosage 80 g/ha): 80%; Post-emergence action against LOLRI in % (Lolium rigidum (LOLRI) [24]; dosage 320 g/ha): 80%; Post-emergence action against ABUTH in % ([19]; 320 g/ha): 80%; Pre-emergence action against POLCO in % ([20]; dosage 80 g/ha): 80%; Post-emergence action against AMARE in % [22, 27]: 80%; Post-emergence action against SETVI in % (Setaria viridis (SETVI) [23]; dosage 320 g/ha): 80% |
| COCCOC(=O)[C@@H](C)Oc1nn(-c2ncccc2F)c(-c2ccc(F)nc2)c1Br [Example I-35] | 100 | 100 | 100 | 100 | 100 | 100 | 100 | 0 | 90 | 100 | 100 | 90 | 90 | 100 | 90 | 100 | 90 | 100 | 90 | 20 | Post-emergence action against AVEFA in % (Avena fatua (AVEFA) [1]; 80 g/ha): 100%; Post-emergence action against VIOTR in % (Viola tricolor (VIOTR) [4]; 80 g/ha): 90%; Post-emergence action against ZEAMX in % (crop plant compatibility) (Zea mays (ZEAMX); 20 g/ha, ZEAMX, effect in comparison to untreated controls): 10%; Post-emergence action against ZEAMX in % (Zea mays (ZEAMX)): 10%; Post-emergence action against ORYSA in % (Oryza sativa (ORYSA) [8]; 20 g/ha, effect vs untreated controls): 0%; Post-emergence action against MATIN in % [25]: 90%; Pre-emergence action against SETVI in % (Setaria viridis (SETVI) [11]; dosage 80 g/ha): 100%; Pre-emergence action against LOLRI in % (Lolium rigidum (LOLRI) [17]; dosage 80 g/ha): 90%; Post-emergence action against LOLRI in % (Lolium rigidum (LOLRI) [24]; dosage 80 g/ha): 90%; Post-emergence action against ABUTH in % ([19]; 80 g/ha): 90%; Post-emergence action against AMARE in % ([22]; 80 g/ha, visual rating about 3 weeks after treatment vs untreated controls (100% = plants have died, 0% = like control plants)): 100%; Post-emergence action against SETVI in % (Setaria viridis (SETVI) [23]; dosage 80 g/ha): 100% |
